Source: paper PMC7912740 (Pharmaceutics, 2021)
Read-outs that look alike come from different tables or passages of the source.

Columns and labels:
Assay type in all cases: biochemical
[1] = molecular target: T1, UGT1A6 (Homo sapiens, UniProt P19224); test: N-acetylserotonin glucuronidation in human liver microsomes, cocktail, LC-MS/MS; settings: 1 µM N-acetylserotonin (probe cocktail set B), 5 mM UDPGA, 10 mM MgCl2, alamethicin, pH 7.4, 37 °C, 60 min
T1 construct: native enzyme in ultrapooled human liver microsomes (Corning 452161), read by N-acetylserotonin glucuronidation
T1 sequence (P19224 27-532): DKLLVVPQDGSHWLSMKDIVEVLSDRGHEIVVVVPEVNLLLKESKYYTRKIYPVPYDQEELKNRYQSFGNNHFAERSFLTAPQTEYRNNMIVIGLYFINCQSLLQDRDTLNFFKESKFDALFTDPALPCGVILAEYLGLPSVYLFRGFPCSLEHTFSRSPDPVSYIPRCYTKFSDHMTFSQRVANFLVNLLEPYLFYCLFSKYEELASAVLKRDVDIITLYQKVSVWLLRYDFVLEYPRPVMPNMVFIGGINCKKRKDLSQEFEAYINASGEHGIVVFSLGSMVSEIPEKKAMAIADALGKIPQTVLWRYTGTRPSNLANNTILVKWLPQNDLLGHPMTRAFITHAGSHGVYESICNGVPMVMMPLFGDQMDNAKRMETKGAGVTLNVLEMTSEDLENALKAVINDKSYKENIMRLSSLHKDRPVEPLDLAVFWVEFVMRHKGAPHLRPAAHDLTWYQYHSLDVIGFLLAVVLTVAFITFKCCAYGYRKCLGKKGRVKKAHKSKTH

[2] = molecular target: T2, UGT1A3 (Homo sapiens, UniProt P35503); test: chenodeoxycholic acid 24-acyl-glucuronidation in human liver microsomes, LC-MS/MS, Dixon plot; settings: chenodeoxycholic acid 1–10 µM, 5 mM UDPGA, 10 mM MgCl2, alamethicin, pH 7.4, 30 min; competitive
T2 construct: native enzyme in ultrapooled human liver microsomes (Corning 452161), read by chenodeoxycholic acid 24-acyl-glucuronidation
T2 sequence (P35503 29-534): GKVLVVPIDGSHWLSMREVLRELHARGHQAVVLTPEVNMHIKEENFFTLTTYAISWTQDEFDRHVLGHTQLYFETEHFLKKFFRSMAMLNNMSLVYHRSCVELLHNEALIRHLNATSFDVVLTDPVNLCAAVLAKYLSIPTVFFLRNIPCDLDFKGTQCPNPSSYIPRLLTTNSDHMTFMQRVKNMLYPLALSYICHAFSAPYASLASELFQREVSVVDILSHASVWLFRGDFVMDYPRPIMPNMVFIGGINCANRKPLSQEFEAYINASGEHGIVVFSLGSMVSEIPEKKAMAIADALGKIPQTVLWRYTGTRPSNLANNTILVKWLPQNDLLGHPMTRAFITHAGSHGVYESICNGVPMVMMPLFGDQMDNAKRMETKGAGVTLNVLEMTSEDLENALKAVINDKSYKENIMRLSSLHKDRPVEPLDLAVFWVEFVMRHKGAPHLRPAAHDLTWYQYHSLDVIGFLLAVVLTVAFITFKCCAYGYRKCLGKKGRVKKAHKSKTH

[3] = molecular target: T3, UGT1A1 (Homo sapiens, UniProt P22309); test: SN-38 glucuronidation in human liver microsomes, cocktail, LC-MS/MS; settings: 0.5 µM SN-38 (probe cocktail set A), 5 mM UDPGA, 10 mM MgCl2, alamethicin, pH 7.4, 37 °C, 60 min
T3 construct: native enzyme in ultrapooled human liver microsomes (Corning 452161), read by SN-38 glucuronidation
T3 sequence (P22309 26-533): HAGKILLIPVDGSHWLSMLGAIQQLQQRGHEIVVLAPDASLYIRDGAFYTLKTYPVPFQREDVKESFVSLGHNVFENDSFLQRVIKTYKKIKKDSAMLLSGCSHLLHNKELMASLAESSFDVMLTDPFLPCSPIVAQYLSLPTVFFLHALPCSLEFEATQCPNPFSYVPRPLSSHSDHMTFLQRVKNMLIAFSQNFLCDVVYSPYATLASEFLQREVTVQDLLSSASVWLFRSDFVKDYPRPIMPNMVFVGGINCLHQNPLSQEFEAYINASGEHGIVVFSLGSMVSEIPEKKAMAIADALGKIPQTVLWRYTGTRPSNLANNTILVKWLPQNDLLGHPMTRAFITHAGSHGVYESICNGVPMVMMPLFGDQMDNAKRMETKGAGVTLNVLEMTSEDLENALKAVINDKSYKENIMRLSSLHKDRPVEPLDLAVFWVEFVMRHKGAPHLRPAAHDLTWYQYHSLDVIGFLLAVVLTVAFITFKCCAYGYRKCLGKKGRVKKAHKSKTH

[4] = molecular target: T3, UGT1A1; test: SN-38 glucuronidation in human liver microsomes, LC-MS/MS, Dixon plot; settings: SN-38 0.2–2 µM, 5 mM UDPGA, 10 mM MgCl2, alamethicin, pH 7.4, 30 min; noncompetitive
[5] = molecular target: T4, UGT1A9 (Homo sapiens, UniProt O60656); test: mycophenolic acid glucuronidation in human liver microsomes, cocktail, LC-MS/MS; settings: 0.2 µM mycophenolic acid (probe cocktail set B), 5 mM UDPGA, 10 mM MgCl2, alamethicin, pH 7.4, 37 °C, 60 min
T4 construct: native enzyme in ultrapooled human liver microsomes (Corning 452161), read by mycophenolic acid glucuronidation
T4 sequence (O60656 26-530): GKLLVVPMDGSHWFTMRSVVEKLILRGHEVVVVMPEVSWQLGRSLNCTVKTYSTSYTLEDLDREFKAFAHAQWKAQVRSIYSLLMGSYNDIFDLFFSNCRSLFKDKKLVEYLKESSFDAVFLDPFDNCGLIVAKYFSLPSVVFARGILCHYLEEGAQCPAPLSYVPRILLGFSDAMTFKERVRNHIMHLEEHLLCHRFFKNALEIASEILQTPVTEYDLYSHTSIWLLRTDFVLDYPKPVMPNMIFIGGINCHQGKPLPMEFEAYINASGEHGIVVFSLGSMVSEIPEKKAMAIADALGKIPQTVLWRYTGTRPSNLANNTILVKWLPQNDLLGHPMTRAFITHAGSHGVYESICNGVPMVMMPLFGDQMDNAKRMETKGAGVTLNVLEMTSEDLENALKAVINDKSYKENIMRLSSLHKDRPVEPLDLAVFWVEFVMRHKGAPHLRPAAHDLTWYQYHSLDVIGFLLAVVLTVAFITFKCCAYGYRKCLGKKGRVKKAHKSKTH

[6] = molecular target: T2, UGT1A3; test: chenodeoxycholic acid 24-acyl-glucuronidation in human liver microsomes, cocktail, LC-MS/MS; settings: 2 µM chenodeoxycholic acid (probe cocktail set A), 5 mM UDPGA, 10 mM MgCl2, alamethicin, pH 7.4, 37 °C, 60 min
[7] = molecular target: T5, UGT1A4 (Homo sapiens, UniProt P22310); test: trifluoperazine N-glucuronidation in human liver microsomes, cocktail, LC-MS/MS; settings: 0.5 µM trifluoperazine (probe cocktail set A), 5 mM UDPGA, 10 mM MgCl2, alamethicin, pH 7.4, 37 °C, 60 min; read-out: IC50 (μM) / Eudesmin
T5 construct: native enzyme in ultrapooled human liver microsomes (Corning 452161), read by trifluoperazine N-glucuronidation
T5 sequence (P22310 29-534): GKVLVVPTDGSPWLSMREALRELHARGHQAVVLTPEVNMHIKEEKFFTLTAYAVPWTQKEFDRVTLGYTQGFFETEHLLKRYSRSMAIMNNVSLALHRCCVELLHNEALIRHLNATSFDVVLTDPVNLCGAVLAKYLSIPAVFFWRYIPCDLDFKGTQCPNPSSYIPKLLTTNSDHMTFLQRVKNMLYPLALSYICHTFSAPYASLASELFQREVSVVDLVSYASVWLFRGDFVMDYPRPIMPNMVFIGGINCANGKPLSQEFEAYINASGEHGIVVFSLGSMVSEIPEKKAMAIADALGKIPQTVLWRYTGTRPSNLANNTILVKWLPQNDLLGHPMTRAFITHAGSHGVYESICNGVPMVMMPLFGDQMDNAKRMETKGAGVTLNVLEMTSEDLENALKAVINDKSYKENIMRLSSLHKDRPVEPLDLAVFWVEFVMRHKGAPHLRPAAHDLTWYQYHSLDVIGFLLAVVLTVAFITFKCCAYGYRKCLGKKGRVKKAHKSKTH

[8] = molecular target: T6, UGT2B7 (Homo sapiens, UniProt P16662); test: naloxone 3-beta-D-glucuronidation in human liver microsomes, cocktail, LC-MS/MS; settings: 1 µM naloxone (probe cocktail set B), 5 mM UDPGA, 10 mM MgCl2, alamethicin, pH 7.4, 37 °C, 60 min; read-out: IC50 (μM) / Eudesmin
T6 construct: native enzyme in ultrapooled human liver microsomes (Corning 452161), read by naloxone 3-glucuronidation
T6 sequence (P16662 24-529): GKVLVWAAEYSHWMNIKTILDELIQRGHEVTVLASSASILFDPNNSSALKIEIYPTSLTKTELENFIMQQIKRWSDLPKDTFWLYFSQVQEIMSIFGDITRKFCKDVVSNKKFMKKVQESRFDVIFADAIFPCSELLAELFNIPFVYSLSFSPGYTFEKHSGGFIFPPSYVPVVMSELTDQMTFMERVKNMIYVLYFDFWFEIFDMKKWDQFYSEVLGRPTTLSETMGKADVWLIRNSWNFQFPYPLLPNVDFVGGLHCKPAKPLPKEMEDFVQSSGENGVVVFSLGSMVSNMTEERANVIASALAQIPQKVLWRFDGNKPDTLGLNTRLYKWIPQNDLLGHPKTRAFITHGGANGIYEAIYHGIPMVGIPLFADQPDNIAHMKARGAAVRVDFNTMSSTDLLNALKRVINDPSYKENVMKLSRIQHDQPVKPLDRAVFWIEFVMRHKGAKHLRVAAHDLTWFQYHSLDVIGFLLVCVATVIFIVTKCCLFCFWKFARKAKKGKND

[9] = read-out: IC50 (μM) / Epimagnolin A
[10] = read-out: IC50 (μM) / Yangambin

Row | IC50 ([1]; read-out: IC50 (μM) / Eudesmin) | Ki [2] | IC50 ([3]; read-out: IC50 (μM) / Eudesmin) | Ki [4] | IC50 ([5]; read-out: IC50 (μM) / Eudesmin) | IC50 ([6]; read-out: IC50 (μM) / Eudesmin) | IC50 [7] | IC50 [8] | IC50 [1, 9] | IC50 [3, 10] | IC50 [5, 9] | IC50 [6, 10] | Structure (SMILES)
1 | 196 µM | 39.8 µM | 24.3 µM | 25.7 µM | 173 µM | 26.6 µM | > 200 µM | > 200 µM | – | – | – | – | COc1ccc([C@H]2OC[C@H]3[C@@H]2CO[C@@H]3c2ccc(OC)c(OC)c2)cc1OC [Eudesmin]
2 | – | 66.8 µM | – | 17.1 µM | – | – | > 200 µM | > 200 µM | > 200 µM | 29.7 µM | > 200 µM | 56.5 µM | COc1cc([C@H]2OC[C@H]3[C@@H]2CO[C@@H]3c2cc(OC)c(OC)c(OC)c2)cc(OC)c1OC [Yangambin]
